The text below walks through data of ChEMBL document CHEMBL4483862, “Open-source discovery of chemical leads for next-generation chemoprotective antimalarials” (2018).

Where only a bound is given, the exact number is not on record here.

The term IC50 denotes the concentration needed to halve the response being measured. A word on the IC90: it is the concentration at which the effect reaches the 90% level.

This experiment has as its system Plasmodium berghei. As to the kind of experiment: Luciferase/luciferin-expressing antifolate-resistant parasites were used to infect a culture of HepG2 cells that were pre-incubated with compounds. Infected hepatocytes emit light due to the luciferase reaction. Assay results are presented as the percent inhibition of light emission compared to control. […]. The class given is functional. Conditions: sporozoite; for IC90: read-out: LUCIFERASE INFECTION ASSAY - IC90.

Setting [1] is: read-out: LUCIFERASE INFECTION ASSAY - IC50.

Regarding `O=C(Cc1cn2ccsc2n1)NNC(=O)c1cccnc1Nc1cccc(C(F)(F)F)c1`, the IC90 came out at 7.63 µM. Under “HEPG2TOX_HILL_SLOPE 6.77, HEPG2TOX_R_SQUARED 0.513, PBLUC_HILL_SLOPE 2.49, PBLUC_R_SQUARED 0.696, read-out: LUCIFERASE INFECTION ASSAY - IC50”, the IC50 turned out to be 3.16 µM.
On to `COc1cc2c(C#N)c(N3CCN(c4ccccc4OC)CC3)nc(N)c2c(N)n1`, for which the IC90 worked out at 4.7 µM. Also, the IC50 (HEPG2TOX_HILL_SLOPE 3.01, HEPG2TOX_R_SQUARED 0.942, PBLUC_HILL_SLOPE 1.46, PBLUC_R_SQUARED 0.909, read-out: LUCIFERASE INFECTION ASSAY - IC50) was determined as 1.04 µM.
With `NC1=Nc2cccc3cccc(c23)N1`, the IC90 came out at 12.9 µM. For the same compound, the IC50 (FFLUC_HILL_SLOPE 1.44, FFLUC_R_SQUARED 0.698, HEPG2TOX_HILL_SLOPE 2.55, HEPG2TOX_R_SQUARED 0.966, PBLUC_HILL_SLOPE 3.15, PBLUC_R_SQUARED 0.786, read-out: LUCIFERASE INFECTION ASSAY - IC50) was found to be 6.42 µM.
Take `CN(Cc1c(F)cccc1Cl)C(=O)COc1ccc2[nH]c3ccccc3c(=O)c2c1`: the IC90 was 1.11 µM. Also, the IC50 (PBLUC_HILL_SLOPE 2.98, PBLUC_R_SQUARED 0.795, read-out: LUCIFERASE INFECTION ASSAY - IC50) was determined as 0.53 µM.
With `CC(=O)c1ccccc1NC(=O)CNc1ccccc1N(C)Cc1ccccc1`, the IC90 is above 10 µM. The IC50 (PBLUC_HILL_SLOPE 3.51, PBLUC_R_SQUARED 0.275, read-out: LUCIFERASE INFECTION ASSAY - IC50) is 8.09 µM.
For `COCCCNC(=S)Nc1cccc2ccccc12`, the IC90 was above 12 µM. Also, the IC50 (HEPG2TOX_HILL_SLOPE 10.4, HEPG2TOX_R_SQUARED 0.777, PBLUC_HILL_SLOPE 18.1, PBLUC_R_SQUARED 0.604, read-out: LUCIFERASE INFECTION ASSAY - IC50) was 11.8 µM.
On to `CCOc1ccc(-n2c(SCC(=O)c3c(N)n(C)c(=O)n(C)c3=O)nnc2-c2ccccc2Cl)cc1`, for which the IC90 was 3.67 µM. For the same compound, under setting [1], the IC50 stood at 3.28 µM.
Regarding `Cc1cc(-c2cccc3[nH]c(C(F)(F)F)nc23)nn1C(=O)c1ccc([N+](=O)[O-])cc1`, the IC90 is above 10 µM. Also, the IC50 (FFLUC_HILL_SLOPE 35.5, FFLUC_R_SQUARED 0.403, HEPG2TOX_HILL_SLOPE 0.192, HEPG2TOX_R_SQUARED 0.301, PBLUC_HILL_SLOPE 13.6, PBLUC_R_SQUARED 0.349, read-out: LUCIFERASE INFECTION ASSAY - IC50) amounted to 9.27 µM.
For `CNc1nn(C(=O)Nc2cccc(C(F)(F)F)c2)cc1[N+](=O)[O-]`, the IC90 was above 10 µM. For the same compound, the IC50 (PBLUC_HILL_SLOPE 3.4, PBLUC_R_SQUARED 0.508, read-out: LUCIFERASE INFECTION ASSAY - IC50) turned out to be 5.63 µM.
In the case of `Fc1ccc(CNc2n[nH]c(=S)s2)cc1`, the IC90 was above 13.7 µM. For the same compound, under “FFLUC_HILL_SLOPE 2.08, FFLUC_R_SQUARED 0.432, read-out: LUCIFERASE INFECTION ASSAY - IC50”, the IC50 was above 13.7 µM.
With `O=C(Nc1nnc(C2CC2)s1)c1cccc(S(=O)(=O)N2CCc3ccccc32)c1`, the IC90 is above 10 µM. Further, the half-maximal inhibitory concentration (IC50) under setting [1] is above 10 µM.
`CN(C)C(CNc1cc(C(=O)NC2CC2)c2ccccc2n1)Cc1ccccc1` (stereo not drawn): the IC90 is above 10 µM. Also, the IC50 under setting [1] is above 10 µM.
Regarding `Cc1cc(C)cc(-n2nc(C)c3c2NC(=O)CC3c2ccc3c(c2)OCO3)c1` (stereo not drawn), the IC90 was above 8.79 µM. Under “PBLUC_HILL_SLOPE 3.57, PBLUC_R_SQUARED 0.259, read-out: LUCIFERASE INFECTION ASSAY - IC50”, the IC50 stood at 7.56 µM.
In the case of `O=C(NCc1ccc(F)c(Cl)c1)Nc1csc([N+](=O)[O-])c1`, the IC90 was above 10 µM. Where the note is “PBLUC_HILL_SLOPE 9.52, PBLUC_R_SQUARED 0.452, read-out: LUCIFERASE INFECTION ASSAY - IC50”, the IC50 is 8.04 µM.
With `Oc1ccc(/C=C/c2ccc3cccc(O)c3n2)cc1Br`, the 90% effect concentration (IC90) was 7.7 µM. The IC50 (PBLUC_HILL_SLOPE 43.7, PBLUC_R_SQUARED 0.404, read-out: LUCIFERASE INFECTION ASSAY - IC50) came to 7.32 µM.
For `Cc1cccc(-c2cn3c(-c4ccc(N(C)C)cc4)cnc3cn2)c1C`, the IC90 was 1.28 µM. The IC50 (HEPG2TOX_HILL_SLOPE 0.565, HEPG2TOX_R_SQUARED 0.75, PBLUC_HILL_SLOPE 0.899, PBLUC_R_SQUARED 0.883, read-out: LUCIFERASE INFECTION ASSAY - IC50) stood at 0.111 µM.
As for `CCC(C)NC(=O)c1c(NC(=O)C(C)Oc2ccccc2)nc2ccc(C)cn12` (stereo not drawn), the IC90 is above 8.37 µM. Further, where the note is “PBLUC_HILL_SLOPE 12.7, PBLUC_R_SQUARED 0.125, read-out: LUCIFERASE INFECTION ASSAY - IC50”, the IC50 turned out to be 7.88 µM.
As to `Cc1[nH]c2ccccc2c1C(=O)C(C)OC(=O)C1(c2cccc(F)c2)CCCC1` (stereo not drawn), the IC90 was above 10 µM. For the same compound, the IC50 (HEPG2TOX_HILL_SLOPE 0.175, HEPG2TOX_R_SQUARED 0.148, read-out: LUCIFERASE INFECTION ASSAY - IC50) is above 10 µM.
As to `O=C(c1[nH]nc2ccccc12)N1CCN(S(=O)(=O)c2cccs2)CC1`, the IC90 is above 10 µM. Where the note is “PBLUC_HILL_SLOPE 2.58, PBLUC_R_SQUARED 0.457, read-out: LUCIFERASE INFECTION ASSAY - IC50”, the half-maximal inhibitory concentration (IC50) turned out to be 7.61 µM.
Take `O=C(/C=C/c1cc([N+](=O)[O-])ccc1Cl)c1ccc(N2CCOCC2)c(F)c1`: the IC90 was above 10 µM. Also, the IC50 (HEPG2TOX_HILL_SLOPE 3.72, HEPG2TOX_R_SQUARED 0.763, PBLUC_HILL_SLOPE 12.8, PBLUC_R_SQUARED 0.291, read-out: LUCIFERASE INFECTION ASSAY - IC50) was 8.87 µM.
Regarding `COC(=O)c1c(CSc2nnnn2C)nc2ccccc2c1-c1ccccc1`, the IC90 is above 10 µM. Besides, the IC50 under setting [1] is above 10 µM.
As for `CCn1c2ccccc2c2cc(Nc3c(C#N)c(=O)n(C)c(=O)n3C)ccc21`, the IC90 turned out to be 0.508 µM. Besides, the IC50 (HEPG2TOX_HILL_SLOPE 1.91, HEPG2TOX_R_SQUARED 0.9, PBLUC_HILL_SLOPE 11.3, PBLUC_R_SQUARED 0.663, read-out: LUCIFERASE INFECTION ASSAY - IC50) worked out at 0.418 µM.
For `Cc1ccc2nc(NC(=O)c3cccc(Cl)c3)c(C(=O)NCC(C)C)n2c1`, the IC90 amounted to 1.3 µM. In addition, the IC50 (FFLUC_HILL_SLOPE 3.3, FFLUC_R_SQUARED 0.594, HEPG2TOX_HILL_SLOPE 1.2, HEPG2TOX_R_SQUARED 0.909, PBLUC_HILL_SLOPE 9.89, PBLUC_R_SQUARED 0.561, read-out: LUCIFERASE INFECTION ASSAY - IC50) is 1.04 µM.
For `Fc1ccc(-c2cc3ncnc(NC4CC4)c3s2)cc1`, the IC90 was above 10 µM. Moreover, the IC50 under setting [1] was above 10 µM.
`CC(C)(C)c1cc(C(=O)OCC(=O)N2CCCc3ccccc32)cc(C(C)(C)C)c1`: the IC90 stood at 9.87 µM. Besides, the IC50 (FFLUC_HILL_SLOPE 12.2, FFLUC_R_SQUARED 0.329, PBLUC_HILL_SLOPE 3.02, PBLUC_R_SQUARED 0.491, read-out: LUCIFERASE INFECTION ASSAY - IC50) came to 4.77 µM.
Turning to `Cc1ccccc1N1C(=O)c2ccccc2C(Cc2ccc(C#N)cc2)(Cc2ccc(C#N)cc2)C1=O`, the IC90 was above 10 µM. The IC50 (FFLUC_HILL_SLOPE 16.6, FFLUC_R_SQUARED 0.0411, PBLUC_HILL_SLOPE 0.772, PBLUC_R_SQUARED 0.177, read-out: LUCIFERASE INFECTION ASSAY - IC50) is above 10 µM.
Take `Cn1ccc2cc(-c3cn4c(-c5ccc(C#N)cc5)cnc4cn3)ccc21`: the IC90 worked out at 0.546 µM. The IC50 (HEPG2TOX_HILL_SLOPE 1.34, HEPG2TOX_R_SQUARED 0.963, PBLUC_HILL_SLOPE 3.57, PBLUC_R_SQUARED 0.761, read-out: LUCIFERASE INFECTION ASSAY - IC50) was 0.295 µM.
As to `CC1(C)N=C(N)N=C(N)N1c1ccc(Cl)cc1` [CYCLOGUANIL], the IC90 worked out at 0.515 µM. In addition, the half-inhibitory concentration (IC50) (FFLUC_HILL_SLOPE 0.496, FFLUC_R_SQUARED 0.478, PBLUC_HILL_SLOPE 5.33, PBLUC_R_SQUARED 0.733, read-out: LUCIFERASE INFECTION ASSAY - IC50) was 0.341 µM.
Consider `CC1CCc2c(C(=O)Nc3cccc(Br)c3)csc2C1` (stereo not drawn), for which the IC90 was above 9.42 µM. Further, the IC50 (PBLUC_HILL_SLOPE 12.9, PBLUC_R_SQUARED 0.0655, read-out: LUCIFERASE INFECTION ASSAY - IC50) was 9.3 µM.
Take `COc1cccc(Nc2nnc(SCC(=O)N(c3ccccc3)C(C)C)s2)c1`: the IC90 is above 10 µM. The IC50 under setting [1] is above 10 µM.
`CCn1nnc2cc(C(=O)NC3CCc4nc(-c5ccccc5)ncc4C3)ccc21` (stereo not drawn): the IC90 is above 10 µM. Besides, for the setting “HEPG2TOX_HILL_SLOPE 0.553, HEPG2TOX_R_SQUARED 0.534, PBLUC_HILL_SLOPE 1.69, PBLUC_R_SQUARED 0.311, read-out: LUCIFERASE INFECTION ASSAY - IC50”, the IC50 was 4.68 µM.
As to `O=C(Cc1cn(-c2ccccc2)nc1-c1ccc(Cl)cc1)NCc1ccc(Cn2ccnc2)cc1`, the IC90 was above 10 µM. Also, under “PBLUC_HILL_SLOPE 23, PBLUC_R_SQUARED 0.395, read-out: LUCIFERASE INFECTION ASSAY - IC50”, the IC50 amounted to 9.71 µM.
On to `Fc1cccc(-c2nc3ccnc(NCCc4ccccn4)c3[nH]2)c1`, for which the IC90 is 4.02 µM. For the same compound, for the setting “HEPG2TOX_HILL_SLOPE 2.04, HEPG2TOX_R_SQUARED 0.803, PBLUC_HILL_SLOPE 12.8, PBLUC_R_SQUARED 0.152, read-out: LUCIFERASE INFECTION ASSAY - IC50”, the IC50 is 3.38 µM.
For `Cn1cnc([N+](=O)[O-])c1Sc1cccs1`, the IC90 is above 13.7 µM. The IC50 (FFLUC_HILL_SLOPE 1.45, FFLUC_R_SQUARED 0.647, PBLUC_HILL_SLOPE 13.1, PBLUC_R_SQUARED 0.224, read-out: LUCIFERASE INFECTION ASSAY - IC50) was above 13.7 µM.
